This series can be described thus: Human HepG2 cell viability assay in 384 well format. The class given is toxicity, cell-based. Set-up: dose 125 nL, time 70.5 hour; concentration not given beside the values. The settings on record: HepG2 cells, read-out: Inhibition.
As to `COCC(=O)N1C[C@H]2CN(Cc3cccc(F)c3)C(=O)[C@H]2C1`, the cytotoxicity at 70.5 h came out at 8.07%. For `O=C(NC1CC1)N1C[C@H]2CN(Cc3cccc(F)c3)C(=O)[C@H]2C1` the value was -13.8%. Under `Cc1ccc(C(=O)N2C[C@H]3CCC[C@@]3(COCC3CCOCC3)C2)o1` stands -5.19%. For `CN1C(=O)CC(c2cnn(C)c2)C12CCN(C(=O)c1ccco1)CC2` (centres undefined) the value was -6.73%; for `Cc1ccc(CN2CCN(C)c3ncccc3C2)o1`, -6.49%. In the case of `CN1C(=O)CC(c2cnn(C)c2)C12CCN(C(=O)c1cccn1C)CC2` (centres undefined), the cytotoxicity at 70.5 h is -13.1%. Under `CS(=O)(=O)N[C@H]1CN(C(=O)c2cscn2)[C@@H]2CCCO[C@H]12` stands -8.41%.

Take `O=C(c1ccoc1)N1CC[C@@H]2O[C@@H](COCC3CCOCC3)CC[C@@H]21`: the cytotoxicity at 70.5 h was 16%. Regarding `CC(C)Nc1ncnc2c1CCN(C(=O)CC1CCCC1)CC2`, the cytotoxicity at 70.5 h is 9.38%. Under `Cc1ccsc1C(=O)N1CCc2ncnc(NC(C)C)c2CC1` stands -7.7%; under `O=C(c1ccncn1)N1C[C@H]2CCC[C@@]2(COCC2CCOCC2)C1`, -14.6%. Under `Cc1nc(COC[C@H]2CCC[C@]23CN(C2CCOC2)CCO3)cs1` (some centres undefined) stands 22.4%; under `O=C(NCC1CC1)C1CN(C(=O)Nc2ccccc2)CC12CCOCC2` (centres undefined), -5.6%; under `CC(C)NC(=O)c1cc2c(c3ccccc3n2C)n1C(=O)N(C)C`, -9.14%. For `CC(C)NC(=O)C1CN(C(=O)c2ccccc2)CC12CCOCC2` (centres undefined) the value was -5.57%; for `O=C(c1cccnc1)N1CCC2(CC1)CN(c1ccccn1)CCO2`, -13.7%; for `COc1cc(N2C[C@H]3CCC[C@@H](CN4CCCC4)[C@H]3C2)ncn1`, -8.91%.

In the case of `O=C1CC2(CCN(Cc3ccsc3)C2)CN1c1ccc2c(c1)OCO2` (centres undefined), the cytotoxicity at 70.5 h came out at 10.9%. For `O=C(NCCN1CCCCC1=O)C1CCC(=O)N(C2CCCC2)C1` (centres undefined) the value was -3.21%; for `CCn1c(C2CCN(C(=O)c3cc(CC(C)C)no3)CC2)nn(C)c1=O`, 3.74%. Under `O=C(CN1C(=O)CCNC1=O)N1CCOC(c2ccc(Cl)c(Cl)c2)C1` (centres undefined) stands -10.7%; under `CCn1c(N)nc2cc(C(=O)N3CCN(CC(F)(F)F)CC3)cnc21`, -13%.

For the molecule `COc1cccc(-n2c(SCC(=O)O)nnc2-c2cn[nH]c2)c1`, the cytotoxicity at 70.5 h was -3.32%. Under `CCc1nnc(CN(CC)C(=O)C(C)n2ccnc2C(C)C)o1` (centres undefined) stands -5.37%; under `COCCn1cnnc1CN(C)c1nc(N)nc2c1CCCC2`, 3.03%. For `CC1=C(C(=O)N2CCOC(Cc3cccc(C(F)(F)F)c3)C2)OCCO1` (centres undefined) the value was -6.57%; for `Cc1ncsc1CCN(C)Cc1cc2n(n1)CCN(Cc1ncc[nH]1)C2`, 47.1%. Under `COC(=O)CNC(=O)N1CCC2(CC1)CC(c1ccccc1)CN(C)C2` (centres undefined) stands 15.9%.

On to `CC(C)Oc1ccc(CN2CCN3CCN(C)CC3C2)cc1CO` (centres undefined), for which the cytotoxicity at 70.5 h was -5.57%. Under `O=C1CC2(CCN(CCCO)CC2)CN1Cc1ccc(F)c(F)c1` stands -5%; under `COc1cccc(OC2CN(C(=O)c3cc(CC(C)C)nn3C)C2)c1`, -1.49%; under `CCn1c(C2CCCN(C(=O)C(C)(C)OC)C2)nn(CCN(C)C)c1=O` (centres undefined), -1.55%. `CC(C)n1cccc1C(=O)N1CC[C@@H](NC(=O)c2ccccn2)[C@H](O)C1`: the cytotoxicity at 70.5 h is -14.5%. Take `Cn1c(CN2CCC(OCc3cccnc3)CC2)cc2ccccc21`: the cytotoxicity at 70.5 h is 1.71%.

For the molecule `CC(O)c1cn(CC2CCN(C(=O)CN3CCCC3=O)CC2)nn1` (centres undefined), the cytotoxicity at 70.5 h was -10.1%. Take `CCC(=O)N1CCN(C(=O)Nc2ccc(Cl)cc2)[C@H]2CS(=O)(=O)C[C@H]21`: the cytotoxicity at 70.5 h was -14.3%. Under `COc1ccccc1N1CCN(C(=O)CCc2nncn2C)C(C)C1` (centres undefined) stands 17.3%; under `Cc1n[nH]c(C)c1CCN(C)C(=O)c1ccc(CN2CCCCC2)cc1`, 34.3%. Under `Cn1ccnc1CN1CCC(c2ccnc(-c3cccc(O)c3)c2)C1` (centres undefined) stands -1.18%; under `COCCn1ccnc1C1CCN(c2cccc(C(=O)O)n2)CC1`, -3.81%; under `CC1CCN(S(=O)(=O)N2C[C@H](c3ccccc3)[C@@H](N)C2)CC1`, 27.7%. Under `COCCCN1CC2(CCCN(c3ncnc4[nH]cnc34)C2)CCC1=O` (centres undefined) stands -6.06%; under `COc1ccccc1CCC(=O)N1C[C@H](c2ccccc2)[C@@H](N)C1`, -8.71%. As for `COc1cccc(-c2nc3c([nH]2)CCNC3)c1F`, the cytotoxicity at 70.5 h was -12.1%. For `Cc1cc(-c2cc(S(=O)(=O)N3C[C@H](C4CC4)[C@@H](N)C3)c(C)s2)[nH]n1` the value was -9.13%; for `CC(C)CC(NC(=O)c1cc(C2CC2)n[nH]1)c1ncnn1C` (centres undefined), 20.9%. For `COc1ccccc1CN1C(=O)O[C@@H]2CN(CC3CC3)C[C@@H]21` the value was -0.52%; for `CCOc1ccc(C(=O)N2C[C@H]3CC[C@@H]2CN(C(=O)C2CCC2)C3)cc1`, -0.418%.

`O=C(CSCC1CC1)N1CCCN(c2ccc(F)cc2)CC1`: the cytotoxicity at 70.5 h was -7.69%.

As to `CC1(Cc2ccc3c(c2)OCO3)CCCN(S(=O)(=O)N2CCCC2)C1` (centres undefined), the cytotoxicity at 70.5 h amounted to 0.304%. Regarding `CCCn1ccnc1CN1CCC(Oc2ccc(Cl)cc2)(C(=O)O)CC1`, the cytotoxicity at 70.5 h is -10.4%. With `Cc1cc(N(C)CCN(C)C2CCCC2)n2nc(C)cc2n1`, the cytotoxicity at 70.5 h was -1.99%.

On to `COc1ccc(OCc2cc(C(=O)N3CCC(O)CC3)n[nH]2)c(Cl)c1`, for which the cytotoxicity at 70.5 h is -5.72%. For `Cc1nn(C)cc1-c1ccnc(N2CCSCC2)n1` the value was -1.53%. With `Cn1ncnc1-c1ccnc(NCc2ccncc2)n1`, the cytotoxicity at 70.5 h was -13.8%. For `Cc1cccc(C(Nc2nccc(-c3ccc(C)nc3C)n2)C2CC2)n1` (centres undefined) the value was -3.12%; for `Cc1c[nH]c(CN2CCCCC2CCn2ccnc2C)c(C)c1=O` (centres undefined), -8.38%. For `O=C1N(Cc2ccc(F)c(F)c2)CCCC1(O)CNCc1cccnc1` (centres undefined) the value was -4.19%. For `CCC(C)N(Cc1ccc(C)cc1)Cc1c[nH]c(C)n1` (centres undefined) the value was -5.02%; for `COc1ccc(CN2CCn3cncc3C2)cc1Cn1cncn1`, -5.89%. Take `CCOc1ccc(C(=O)N2CCC(Oc3ccccc3)(C(=O)O)CC2)o1`: the cytotoxicity at 70.5 h is -3.49%. Under `c1ccc(Cc2noc(-c3ccc(NCC4CCCCO4)nc3)n2)cc1` (centres undefined) stands 26.1%; under `Cc1ncc(S(C)(=O)=O)c(N2Cc3ccccc3C2)n1`, 2.76%. Under `O=C(O)c1cc(-n2cc3c(n2)CCC3)cc(S(=O)(=O)NC2CCCC2)c1` stands 26.3%; under `COc1ccc(C(=O)C2CCCN(c3nccc(N)n3)C2)c(C)c1` (centres undefined), -4.73%. As for `CNC(=O)CN1CCOCC12CCN(C(=O)c1ccccc1)CC2`, the cytotoxicity at 70.5 h is -5.33%. For `CC(C)CC(=O)N1CCC2(CC1)COCCN2Cc1ccc(F)cc1` the value was -11.1%; for `Cn1cc(CN2CCC3(CCN(c4cnn(C)c4)C3=O)C2)cn1` (centres undefined), -10.8%; for `COc1ccc(CN2CCC3(CC2)CCN(c2cnn(C)c2)C3=O)cc1`, -6.09%. For `CCN1CCOCC12CCN(C(=O)Cc1ccccc1)CC2` the value was -11.2%. On to `O=C(C1CC1)N1CCC2(CC1)COCCN2Cc1ccc(F)cc1`, for which the cytotoxicity at 70.5 h was 0.119%. For `CC(C)C(=O)N1CCC2(CC1)COCCN2Cc1ccc(F)cc1` the value was -2.33%. Turning to `CN(C)CCOC[C@H]1CC[C@H]2[C@H](CCN2C(=O)c2ccoc2)O1`, the cytotoxicity at 70.5 h was -12.4%.

Consider `O=C1[C@H]2CN(Cc3nccs3)C[C@H]2CN1c1cncnc1`, for which the cytotoxicity at 70.5 h was -8.02%. For `COc1cc(N2CC[C@@H](O)[C@@H]2Cc2ccncc2)ncn1` the value was -10%; for `Fc1cnc(N2CC3(CCN(Cc4ccsc4)C3)C2)nc1`, -6.5%; for `CS(=O)(=O)N[C@@H]1CN(C(=O)c2cccnc2)[C@@H]2CCCO[C@@H]21`, -5.12%. `COCC1CN(CC2CC2)Cc2nccn2C1` (centres undefined): the cytotoxicity at 70.5 h was -6.11%. Under `O=C1[C@H]2CN(Cc3ccco3)C[C@H]2CN1c1ccsc1` stands -11.1%. Turning to `Cc1noc(C)c1CN1CC[C@H]2OCC[C@@]2(C(=O)N(C)C)C1`, the cytotoxicity at 70.5 h was -10.5%. Under `CN1CCO[C@H]2CN(C(=O)c3ccoc3)C[C@H]21` stands -7.03%; under `COCC(=O)N1CCC2(CC1)CN(c1ccccn1)CCO2`, -7.15%; under `COCCN1CCOCC12CCN(C(=O)c1ccncc1)CC2`, -9.1%.

In the case of `COCCN1CCOCC12CCN(C(=O)c1cccnc1)CC2`, the cytotoxicity at 70.5 h is -8.13%. Under `Cn1cc(N2CC3(CCN(Cc4ccsc4)CC3)OCC2=O)cn1` stands 13.1%; under `Cc1ccc(N2CCO[C@H]3CN(Cc4nccs4)C[C@H]32)nn1`, -6.14%; under `COc1ccccc1CN1C[C@@H]2COC[C@]2(COCc2ccncc2)C1`, -10.2%.

With `O=C1[C@H]2CN(Cc3ccccn3)C[C@H]2CN1c1ccsc1`, the cytotoxicity at 70.5 h is -6.18%. Regarding `O=C1[C@H]2CN(Cc3ccncc3)C[C@H]2CN1c1ccsc1`, the cytotoxicity at 70.5 h was -10.1%. For `COCCNC(=O)[C@@]12CCO[C@@H]1CCN(Cc1ccncc1)C2` the value was -10.2%.

Regarding `O=C1CC2(CCN(Cc3ccncc3)C2)CN1c1ccc2c(c1)OCO2` (centres undefined), the cytotoxicity at 70.5 h amounted to 30%. Under `COCCN(C)C1COC2(CCN(Cc3ccccn3)CC2)C1` (centres undefined) stands 11.6%; under `Cc1ccc(N2CCO[C@H]3CN(Cc4cccnc4)C[C@H]32)nn1`, 12.6%. For `CN1CCN(CC2CN(CC3CC3)Cc3nccn3C2)CC1` (centres undefined) the value was -6.02%.

The record behind these values is ChEMBL document CHEMBL3507680, “University of Dundee, Gates Library screen for HepG2 cell viability”.
